Laboratory results: patent publication US11413278B2, “Compounds and methods for promoting stress resistance” (priority 2015, dated 2022)
Like-named read-outs stand apart in the source and are kept apart here.

Assays:
FOXO3 = FOXO3 siRNA knockdown: dependency for H2O2-resistance; type: cell-based, human
Protocol: For qPCR analysis, WI-38 cells were treated with small molecules (at 10 μM) (biological quadruplicates) for 24 hrs and processed for RNA isolation and reverse transcription (RT) with the Cells-to-Ct Kit (Life Technologies), following manufacturer's instructions. RT products were diluted with H2O and used for qPCR analysis on an ABI 7300 system (Life Technologies) (technical triplicates). Relative expression levels of target genes were normalized to the genes B2M, PPIA and GAPDH. To knock down the expression of FOXO3 or NRF2, WI-38 cells were transfected, using the RNAiMAX reagents (Life Technologies), with siRNA oligos (at 10 nM final concentration, 10 ml culture medium) for FOXO3 (Life Technologies) or NRF2 (Integrated DNA Technologies) on 10-cm petri dishes for 36 hrs, and then detached and aliquoted onto 96-well (for qPCR analysis) or 384-well plates (for H2O2-stress treatment). ˜24 hrs later, small molecules were introduced and incubated with cells for 24 hrs. Cells were then either processed with the Cells-to-Ct Kit to prepare RT products for qPCR analysis or subjected to H2O2 (700 μM) for 3 hrs and assayed for viability. The knockdown efficiency of FOXO3 or NRF2 was checked at 36 hrs post-transfection and at the end as well. […]
Applicants used siRNA to knock down FOXO3 expression by ˜70% in an attempt to identify whether the activation of these genes depends on activity of FOXO3 and/or NRF2. […] We used siRNA to knock down FOXO3 expression by ˜60% to 70% (FIG. 3; see data in Table 6). […] (Given the caveat that FOXO3 was not fully knocked down, partial dependency was scored when the H2O2-resistance capacity was reduced by at least 25% but less than 50% upon siRNA knockdown). At least for Gr-7A and Gr-7C, which are structurally related, the observed FOXO3-dependency for H2O2-resistance is consistent with their strong effects to induce FOXO3 target genes (Tables 1a-1f, Table 6, & Table 15), including SOD2 and GADD45A.

C. elegans = C. elegans lifespan assays (liquid and plate); type: in vivo, Caenorhabditis elegans; settings: for ILS at 60 µM / ILS at 66 µM: Caenorhabditis elegans
WI-38 cells [1] = system: WI-38 cells
WI-38 cells [2] = assay: Long-term effects on cell viability (5 days, ATP; morphology, PI imaging); type: cell-based; settings: 10 μM;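 on Luminescence signal for ATP measurement, day-2 Average: compounds at 10 µM with ATP read daily over 5 days of treatment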;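 on Luminescence signal for ATP measurement, day-3 Average: compounds at 10 µM with ATP read daily over 5 days of treatment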;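 on Luminescence signal for ATP measurement, day-4 Average: compounds at 10 µM with ATP read daily over 5 days of treatment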;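 on Luminescence signal for ATP measurement, day-5 Average: compounds at 10 µM with ATP read daily over 5 days of treatment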
Protocol: In addition, cell death was scored by PI-imaging on day 2 and day 5 of treatment.
Applicants introduced molecules (at 10 uM final concentration) to WI-38 fibroblasts and then assayed cell viability (through ATP measurement) everyday, during a course of 5 days of continuous treatment. […] Applicants also examined the morphology and scored cell death (propidium iodide staining) for cells treated with the above molecules. Of these 14 molecules, some appeared to cause cell toxicity. […] Despite the observed long-term toxicity, these molecules are still interesting as they may act as anti-tumor agents in vivo, should they have more pronounced cytotoxicity on highly proliferative tumor cells. When cells were incubated with these molecules for ˜24 hrs and then subject to hydrogen peroxide for 3 hrs, these molecules are all protective. […] Some of these small molecules may be toxic by themselves under certain conditions, but by inducing protective mechanisms, they may trigger “hormesis” and therefore protect cells from oxidative stress.

[3] = system: phosphorylated γH2A.X and TP53BP1; assay: DNA damage marker analysis (immuno-staining); settings: for activity at 10 µM: Homo sapiens, WI-38, 24 h
Protocol: WI-38 cells were seeded on 96-well plates and cultured for 24 hrs and then incubated with small molecules for another 24 hrs. As the positive control to damage DNA, H2O2 was supplemented at 700 μM final concentration for the last 3 hrs. Cells were washed with phosphate-buffered saline (PBS), fixed with 4% paraformaldehyde and then blocked with 5% normal goat serum (Cell Signaling), plus 0.3% Triton X-100, for 1 hr. Primary antibody cocktail (rabbit anti-phospho-histone γH2A.X (Ser-139), 1:100; anti-phospho-TP53BP1 (Ser-1778), 1:100), prepared in 1% BSA and 0.3% Triton X-100/PBS, was then introduced and incubated overnight at 4 C. Next day, samples were washed with PBS and further incubated with fluorophore-conjugated secondary antibody (1:1,000) for 1 hr in the dark. Samples were then washed and incubated with DAPI dye (Life Technologies) (4 μg/ml final concentration) for the last 10 minutes. Images were collected on an INCell Analyzer 2000 (GE) and analyzed with the Developer software.
WI-38 cells were seeded (˜8,000 cells per well) on 96-well plates and cultured for 24 hrs and then incubated with small molecules for another 24 hrs. Doxorubicin (300 nM, 24 hrs) and H2O2 (700 μM, 3 hrs) were also introduced as the positive controls to damage DNA. Cells were washed with phosphate-buffered saline (PBS), fixed with 4% paraformaldehyde for 30 min and then blocked with 5% normal goat serum (Cell Signaling) and 0.3% Triton X-100 for 1 hr. Primary antibody cocktail (Cell Signaling, rabbit anti-phospho-histone γH2A.X (Ser-139), 1:100; anti-phospho-TP53BP1 (Ser-1778), 1:100) was prepared in PBS with 1% BSA and 0.3% Triton X-100 and incubated overnight at 4° C. Next day, samples were washed with PBS and further incubated with fluorophore-conjugated secondary antibody (1:1,000) for 1 hr in dark. Samples were then washed and incubated with DAPI dye (Life Technologies) (4 μg/ml final concentration) for 30 minutes. Images were collected on the INCell Analyzer 2000 (10× objective) and analyzed with the Developer Toolbox.

[4] = 10 uM, with H2O2, FOXO3 knockdown in WI-38 cells, YES = resistance reduced by at least 50%, partial = 25% to 50%

## O=C(NCc1cccnc1)/C(=C\c1cccc(Oc2ccccc2)c1)S(=O)(=O)c1ccccc1 [Gr-7A]
FOXO3; 10 uM, experiment 1 (1st), with H2O2
  FOXO3-dependency for H2O2-resistance, at 10 uM - with H2O2, 1st experiment: 1st, partial;
FOXO3; 10 uM, experiment 2 (2nd), with H2O2
  FOXO3-dependency for H2O2-resistance, at 10 uM - with H2O2, 2nd experiment: 2nd, YES.
FOXO3; 10 uM, experiment 3, with & without H2O2
  FOXO3-dependency for H2O2-resistance, at 10 uM (experiment 3) - with & without H2O2: YES
FOXO3; 10 uM, with & without H2O2, FOXO3 knockdown in WI-38 cells, YES = resistance reduced by at least 50%, partial = 25% to 50%
  FOXO3-dependency for H2O2-resistance (experiment 3): YES
FOXO3; [4]
  FOXO3-dependency for H2O2-resistance, 1st experiment: partial;
  FOXO3-dependency for H2O2-resistance, 2nd experiment: YES.
FOXO3; 10 uM, YES/NO
  Assay 16: FOXO3-dependency for H2O2-resistance: YES
FOXO3; FOXO3 siRNA, at least 2 of 3 independent experiments
  Requirement of FOXO3 to promote H2O2-resistance: required FOXO3
FOXO3; score
  I = FOXO3-dependency for H2O2-resistance: 1
FOXO3; summary score
  I = FOXO3-dependency for H2O2-resistance: 1
C. elegans; in liquid, wild type, with FuDR, 1.0 × 10^9 bacteria/ml, read-out: relative change of mean lifespan vs control, Trial 1
  ILS at 60 µM: 40.6%
C. elegans; in liquid, wild type, with FuDR, 2.5 × 10^9 bacteria/ml, read-out: relative change of mean lifespan vs control, Trial 2
  ILS at 60 µM: 16.2%
C. elegans; on plate, CF512 temperature-sensitive sterile animals, without FuDR, 1.0 × 10^11 bacteria/ml, read-out: relative change of mean lifespan vs control, Trial 4
  ILS at 60 µM: 2.7%
C. elegans; on plate, CF512 temperature-sensitive sterile animals, without FuDR, 2.0 × 10^10 bacteria/ml, read-out: relative change of mean lifespan vs control, Trial 3
  ILS at 60 µM: 13.9%
C. elegans; Assay 2(z), 1.0 × 10^9 bacteria/ml, wild type + FuDR (2012 July), read-out: Lifespan assay in liquid
  ILS at 66 µM: 40.6%
C. elegans; Assay 3(aa), 2.5 × 10^9 bacteria/ml, wild type + FuDR, read-out: Lifespan assay in liquid
  ILS at 66 µM: 16.2%
C. elegans; Assay 4(ab), 2.0 × 10^10 bacteria/ml, CF512 worms, no FuDR, read-out: Lifespan assay on plates
  ILS at 66 µM: 13.9%
C. elegans; Assay 5(ac), 1.0 × 10^11 bacteria/ml, CF512 worms, no FuDR, read-out: Lifespan assay on plates
  ILS at 66 µM: 2.7%
C. elegans; in at least 3 to 4 trials, group range ~10% to ~50%
  Extension of C. elegans' lifespan (qualitative): could extend animal's lifespan
C. elegans; score scale 0 to 2, 4 to 6 independent trials
  O = Life span- extending scores in worms: 2 (2 for observed in more than 2 trials)
C. elegans; summary score
  M = Lifespan-extending scores in worms: 2 (2 for observed in more than 2 trials)
WI-38 cells [1]; WI-38 cells, 10 μM, (*) = compromised ability to protect cells from H2O2, could be due to stability issue
  H2O2-resistant: YES (*)
WI-38 cells [1]; WI-38 cells, no H2O2 stress, 10 uM, normalized ATP measurement
  No H2O2 stress treatment, at 10 uM (fold change): 0.78 fold change
WI-38 cells [1]; YES/NO, if NO, possibly due to repeated freezing/thawing of stocks
  Assay 1: H2O2-resistant: YES
WI-38 cells [1]; asterisks indicate the loss of the ability to protect cells from H2O2 over time
  H2O2-resistant: YES (*)
WI-38 cells [1]; derived from dose response curves, 0.6-20 uM, H2O2-resistance of WI-38 cells
  EC50: 16.1 µM
WI-38 cells [1]; read-out: Est. ED50, dose response 0.6-20 μM, H2O2-resistance
  EC50: 58.4 µM
WI-38 cells [2]; Batch 1, day-1, n = 6, day-0 luminescence = 320956 ± 24708
  Luminescence signal for ATP measurement, day-1 Average: 463265
WI-38 cells [2]; Batch 1, day-2, n = 6, day-0 luminescence = 320956 ± 24708
  Luminescence signal for ATP measurement, day-2 Average: 192116
WI-38 cells [2]; Batch 1, day-3, n = 6, day-0 luminescence = 320956 ± 24708
  Luminescence signal for ATP measurement, day-3 Average: 67526
WI-38 cells [2]; Batch 1, day-4, n = 6, day-0 luminescence = 320956 ± 24708
  Luminescence signal for ATP measurement, day-4 Average: 48480
WI-38 cells [2]; Batch 1, day-5, n = 6, day-0 luminescence = 320956 ± 24708
  Luminescence signal for ATP measurement, day-5 Average: 44670
WI-38 cells [2]; Homo sapiens, WI-38, 120 h, Batch 1, day-5, DMSO ctrl = 100.0%, read-out: ATP luminescence by day-5 normalized
  viability at 10 µM: 4.4%
WI-38 cells [2]; human, 5 days
  O = Potential toxicity: 0
  Q = Potential toxicity: 1
[3]; read-out: Experiment 1, H2A.X-P DNA damage foci staining (no H2O2 stress treatment), at 10 uM
  activity at 10 µM: 337%
[3]; read-out: Experiment 2, H2A.X-P DNA damage foci staining (no H2O2 stress treatment), at 10 uM
  activity at 10 µM: 246%
[3]; read-out: Experiment 2, H2A.X-P DNA damage foci staining (under H2O2 stress treatment), at 10 uM
  activity at 10 µM: 113%
[3]; read-out: Experiment 2, TP53BP1-P DNA damage foci staining (no H2O2 stress treatment), at 10 uM
  activity at 10 µM: 363%
[3]; read-out: Experiment 2, TP53BP1-P DNA damage foci staining (under H2O2 stress treatment), at 10 uM
  activity at 10 µM: 516%
[3]; human, 24 h
  P = Potential DNA-damaging: 0
  R = Potential DNA damaging: 0
